We go through one substance from patent US8158577B2, “Modulation of cartilage homeostasis by active domains of cell binding extracellular matrix molecules” (priority 2004, dated 2012).

The test system of assay [1] is K105 cells. In words: Adhesion of K105 cells to the coated cell binding peptides (FIG. 8). It is filed as cell-based, human. How it is done: Tissue culture dishes were coated with 33 μg/ml (20 µM) peptide solution. The cells (50,000/well) were suspended in PBS containing 0.1% BSA, 25 U/ml collagenase and added to the wells in the presence or absence of synthetic peptide (250 μg/ml) and allowed to adhere for 1 hour at 37° C. Nonadherent cells were removed by washing. Spreading was visualized by light microscopy.

Assay [2] relates to K105 cells. In words: Effect on K105 cells already adherent to chondroadherin, light microscopy time study (FIG. 7, 9, 10). The class given is cell-based, human. The settings on record: peptide 250 μg/ml added after 30 min adhesion; light microscopy after 1, 3 and 20 hours. As to the method: (§1) To test cell binding, the chondrosarcoma cells or bovine chondrocytes were suspended in PBS containing 0.1% BSA, 25 U/ml collagenase and added to the wells (50,000/well), in the absence or presence of various peptide pools or the synthetic peptides (200, 100, 50, 25, 12.5 μg/ml). Non-adherent cells were removed after 1 hour and adhesion was determined by measuring lysosomal N-acetylglucosaminidase (12). Adhesion and spreading was visualized by light microscopy. In the time studies, k105 cells were allowed to adhere for 30 minutes, unbound cells were removed and medium without serum supplemented with or without peptides (250 μg/ml), β1 integrin antibody (clone P4C10, Gibco BRL), EDTA (5 mM) was added. Cell morphology was visualized by light microscopy after 1, 3 and 20 hours.
Tissue culture dishes were coated with 5 μg/ml chondroadherin expressed in E. coli and blocked for non-specific binding with BSA. The k105 cells were suspended in PBS containing 0.1% BSA, and added to the wells (50,000/well). Nonadherent cells were removed after 30 min by washing, plain medium without serum with or without peptides (250 μg/ml) was added and bound cells were visualized by light microscopy after 1, 3 and 20 hours.
Tissue culture dishes were coated with 5 μg/ml chondroadherin expressed in E. coli and blocked for non-specific binding with BSA. The cells were suspended in PBS containing 0.1% BSA, and added to the wells (50,000/well). Nonadherent cells were removed after 30 min by washing, plain medium without serum with or without peptides (250 μg/ml) was added and bound cells were visualized by light microscopy after 1, 3 and 20 hours. […] The activity for integrin binding is located in the C-terminal eight residues of the sequence involving the WLEAK (SEQ ID No. 1) sequence.
Tissue culture dishes were coated with 5 μg/ml chondroadherin expressed in E. coli and blocked for non-specific binding with BSA. The k105 cells were suspended in PBS containing 0.1% BSA, and added to the wells (50,000/well). Nonadherent cells were removed after 30 min by washing, peptide, anti β1 antibody, 5 mM EDTA or plain medium without serum was added and bound cells were visualized by light microscopy after 1 and 3 hours.

For a further assay, the system named is bovine chondrocytes. In words: Adhesion of bovine chondrocytes to human chondroadherin with or without cell binding peptides (FIG. 6). The note with it: peptide 250 μg/ml, 1 hour at 37° C., 100,000 cells/well. The class given is cell-based. How it is done: Bovine chondrocytes were isolated by collagenase (CLS1; Worthington Biochemical Corp., Lakewood, N.J.) digestion of articular cartilage from 4-6 month old calves as described (10). Briefly, cartilage slices were digested for 16 hours with collagenase in EBSS (Earle's balanced salt solution, GIBCO BRL Gaithersburg, Md.). The cells were filtered through a 100 μm nylon filter, washed three times in PBS containing 0.2% BSA (SERVA).
To test cell binding, the chondrosarcoma cells or bovine chondrocytes were suspended in PBS containing 0.1% BSA, 25 U/ml collagenase and added to the wells (50,000/well), in the absence or presence of various peptide pools or the synthetic peptides (200, 100, 50, 25, 12.5 μg/ml). Non-adherent cells were removed after 1 hour and adhesion was determined by measuring lysosomal N-acetylglucosaminidase (12). Adhesion and spreading was visualized by light microscopy. […]
Tissue culture dishes were coated with 5 μg/ml chondroadherin expressed in E. coli or collagen type II and blocked for non-specific binding with BSA. […] Adhesion was determined by analyzing lysosomal hexosaminidase. Adhesion is expressed as number of cells, 100,000 cells/well was seeded. […]

Assay [3] deals with K105 cells. Kind of assay: Adhesion of K105 cells to chondroadherin in the presence of synthetic peptide (FIG. 3, 5A-5B, 13). The settings on record: peptide 250 μg/ml. It is filed as cell-based, human. How it is done:
Human cells (K9) originating from a human chondrosarcoma were a kind gift from Drs. Sven Inerot and Anders Lindahl, The Salgrenska University Hospital Gothenburg, Sweden. The K9 cells were cultured in Dulbeccos Modified Eagle Medium: Nutrient Mixture F12 (DMEM/F12 1:1) with GLUTAMAX I, supplemented with 10% fetal calf serum, 25 μg/ml ascorbic acid, 50 IU of penicillin and 50 μg/ml streptomycin (Life Technologies, Inc.). A different human cells line (K105) originating from a human chondrosarcoma was a kind gift from Dr. Sven Inerot, The Salgrenska University Hospital, Gothenburg, Sweden. The K105 cells were cultured in a mix of 40% Dulbeccos Modified Eagle Medium, 40% Minimum Essential Media (MEM) alpha Medium, 10% Nutrient Mixture F1 supplemented with 100 nM hydrocortisone, 100 ng/ml insulin, 10% fetal calf serum, 25 μg/ml ascorbic acid, 50 IU of penicillin and 50 μg/ml streptomycin (Life Technologies, Inc.). To harvest cells, culture dishes were rinsed three times with Ca^2+/Mg^2+-free PBS and the cells were incubated with 0.5% trypsin and 1 mM EDTA for 5 min. Detached cells were suspended in PBS containing 1 mg/ml trypsin inhibitor (Sigma) and then washed in PBS. To remove membrane-bound collagens the cells were treated with collagenase 100 U/ml (CLSPA; Worthington Biochemical Corp., Lakewood, N.J.) in PBS, 30 min. 37° C. and then washed in PBS.
Tissue culture 48-wells dishes (Nunclon, Nunc, Denmark) were coated overnight with 5 μg/ml chondroadherin in 4M Guanidine-HCl, 50 mM sodium acetate, pH 5.8, or for native protein in PBS. Alternatively coating was with 5 μg/ml collagen type II in PBS followed by after-coating with 0.5% BSA in PBS for 3 hours. Collagen type II was isolated from bovine nasal cartilage by pepsin digestion (11). Bacterially expressed chondroadherin was isolated as described above. Recombinant chondroadherin expressed in EBNA cell was cloned and purified as described elsewhere (8).
as §1
Study design: Tissue culture dishes (48-wells) were coated with 5 μg/ml chondroadherin expressed in E. coli and blocked for non-specific binding with BSA. […] were suspended in PBS containing 0.1% BSA, 25 U/ml collagenase and added to the wells (50,000/well) in the presence of synthetic peptide to be tested and allowed to adhere for 1 hour at 37° C. Nonadherent cells were removed by washing, and adhesion was determined by analyzing lysosomal hexosaminidase.
A 12-mer peptide (1947.01) plus an N-terminal cysteine (CQLRGLRRWLEAK) (SEQ ID NO. 3) representing the candidate sequence identified by mass spectrometry were synthesized and its ability to inhibit cell adhesion was determined. Tissue culture dishes were coated with 5 μg/ml chondroadherin expressed in E. coli and blocked for non-specific binding with BSA. The cells were suspended in PBS containing 0.1% BSA, 25 U/ml collagenase and added to the wells (50,000/well) in the presence of synthetic peptide (200, 100, 50, 25, 12.5 μg/ml) and allowed to adhere for 1 hour at 37° C. Nonadherent cells were removed by washing, and adhesion was determined by analyzing lysosomal hexosaminidase. […]

With H-CKFPTKRSKKAGRH-OH [SEQ ID No. 7], the “adhesion and shape of k105 cells plated on the peptide” value with K105 cells [1] (dishes coated with 33 μg/ml peptide, 1 hour at 37° C.) was “adhere and spread”. Further, in the assay on K105 cells [1] (peptide in solution 250 μg/ml), the “inhibition of k105 adhesion to the coated peptide by the same peptide in solution” value is reported as “unable to inhibit adhesion”. For the same substance, in the assay with K105 cells [2], the “spreading, migration and aggregation of k105 cells adherent to chondroadherin” value is “spreading and migration increased”. In addition, in the assay with bovine chondrocytes, the “bovine chondrocyte adhesion to chondroadherin in the presence of peptide” value is on record as “increased”. In addition, the “k105 cell adhesion to chondroadherin in the presence of peptide” value in the assay with K105 cells [3] (1 hour at 37° C.) is “increased”. In addition, the “k105 cell spreading on chondroadherin in the presence of peptide” value in the assay with K105 cells [3] (1 hour, light microscopy) is on record as “increased”.
